For 25 compounds, IC50 results are on record in US20090192154A1, “SULTAM DERIVATIVES” (Asahi Kasei Pharma Corporation, priority 2007, published 2009).

Where two headings read alike, the source gives them in different places.

What all share (format): biochemical
Test [1] addresses T1, activated human recombinant MMP-3 (Homo sapiens, UniProt P08254).
T1 construct: purchased R&D
The experiment in a line: Inhibitory action for MMP-3 activity, fluorescence peptide assay. The following applies: activated human recombinant MMP-3, 30° C. for 45 minutes. How it is done:
Desired concentration of the test compound was reacted in 100 μl of a mixed reaction solution containing 50 mmol/L Tris-HCl (pH7.5), 150 mmol/LNaCl, 10 mmol/LCaCl2, 0.05% Brij35 and activated human recombinant MMP-3 (R&D) and fluorescence peptide matrix Mca-ArgProLysProValGlu-Nval-TrpArgLys (Dnp) —NH2 (R&D) at 30° C. for 45 minutes. To the mixed reaction solution was added 10 μl of 0.2 mol/L EDTA to stop the enzyme reaction. Then, the fluorescence value was measured at 320 nm excitation wavelength and 405 nm measurement wavelength with a fluorescence plate reader.

Test [2] concerns the target T2, human recombinant ADAMTS-5 (Homo sapiens, UniProt Q9UNA0).
T2 construct: human recombinant ADAMTS-5 in which 6×His tag was added to the C-end side of Asn624; 6xHis (C); made in house
T2 sequence (Q9UNA0 262-624 limits assumed): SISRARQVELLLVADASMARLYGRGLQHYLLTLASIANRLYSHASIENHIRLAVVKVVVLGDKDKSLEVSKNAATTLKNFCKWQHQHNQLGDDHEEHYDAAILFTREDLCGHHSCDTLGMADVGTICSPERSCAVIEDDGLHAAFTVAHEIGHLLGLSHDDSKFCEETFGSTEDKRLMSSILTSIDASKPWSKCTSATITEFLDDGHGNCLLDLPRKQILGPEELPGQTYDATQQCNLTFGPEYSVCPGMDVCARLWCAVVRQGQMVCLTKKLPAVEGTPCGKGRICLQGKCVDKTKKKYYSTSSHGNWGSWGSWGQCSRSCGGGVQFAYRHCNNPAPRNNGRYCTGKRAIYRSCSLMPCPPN
Briefly: Inhibitory action for ADAMTS-5 (aggrecanase) activity, FRET assay with aggrecan interglobular domain peptide. The following applies: human recombinant ADAMTS-5, 37° C. for 60 minutes. On the procedure: The enzyme protein used for measurement of ADAMTS-5 activity was human recombinant ADAMTS-5. An insect cell line was prepared that stably expressed human recombinant ADAMTS-5 in which 6×His tag was added to the C-end side of Asn624. The culture supernatant of this cell line was collected, and the obtained culture supernatant was purified using Ni-NTA agarose (Qiagen)
A matrix peptide used for measurement of aggrecanase activity was Interglobular domain of human recombinant aggrecan. With reference to the method of Hughes, et al. (J. Biol. Chem. 272: pp. 20269-20274, 1997), the peptide of Thr331 to Gly457 of human aggrecan was contained, and the FLAG epitope peptide was added at the N-terminal, and the C-terminal was modified with biotin. This peptide was expressed using Escherichia coli, and the obtained Escherichia coli was subjected to lysis, and then the peptide was purified with an affinity column (Promega)
Desired concentration of the test compound was reacted in 40 μl of a mixed reaction solution containing 50 mmol/L Tris-HCl (pH 7.5), 100 mmol/L NaCl, 10 mmol/L CaCl2, 0.05% Brij35 and human recombinant ADAMTS-5 and Interglobular domain peptide of human recombinant aggrecan at 37° C. for 60 minutes. To the mixed reaction solution was added 10 μl of 0.2 mol/L EDTA to stop the enzyme reaction. Five μl of this mixed reaction solution was harvested and transferred to a 384 well plate. 0.2% Bovine albumin, cryptate-labeled Streptavidin (CIS bio) and XL 665-labeled anti-FLAG (M2) antibody (CIS bio) suitably diluted with PBS (−)-containing 800 mmol/L potassium fluoride were added thereto so that the amount of each of the added matters was 2.5 μl. The resultant solution was incubated at room temperature. After 60 minutes, the fluorescence value was measured at 340 nm excitation wavelength and 615 nm and 665 nm measurement wavelengths with a fluorescence plate reader. When the matrix peptide was not cleaved, the fluorescence resonance energy transfer from cryptate to XL665 occurs and long life fluorescence of 665 nm wavelength is generated. […] Therefore, the aggrecanase activity was calculated using the change of the ratio of the fluorescence value at 665 nm and the fluorescence value at 615 nm. […] The inhibitory action for aggrecanase activity was represented by IC50 value (μmol/L). Exp. No. in Table 2 represents Example number.

The target of test [3] is T3, activated human recombinant MMP-14 catalytic domain (Homo sapiens, UniProt P50281).
T3 construct: purchased Calbiochem
The experiment in a line: Inhibitory action for MMP-14 activity, fluorescence peptide assay. Conditions: 30° C. for 45 minutes. On the procedure: Desired concentration of the test compound was reacted in 100 μl of a mixed reaction solution containing 50 mmol/L Tris-HCl (pH7.5), 150 mmol/LNaCl, 10 mmol/LCaCl2, 0.05% Brij35 and activated human recombinant MMP-14 catalytic domain (Calbiochem) and fluorescence peptide matrix (R&D) at 30° C. for 45 minutes. To the mixed reaction solution was added 10 μl of 0.2 mol/L EDTA to stop the enzyme reaction. Then, the fluorescence value was measured at 320 nm excitation wavelength and 405 nm measurement wavelength with a fluorescence plate reader.

Test [4] addresses T4, activated human recombinant MMP-2 (Homo sapiens, UniProt P08253).
T4 construct: purchased R&D
T4 sequence (P08253 110-660): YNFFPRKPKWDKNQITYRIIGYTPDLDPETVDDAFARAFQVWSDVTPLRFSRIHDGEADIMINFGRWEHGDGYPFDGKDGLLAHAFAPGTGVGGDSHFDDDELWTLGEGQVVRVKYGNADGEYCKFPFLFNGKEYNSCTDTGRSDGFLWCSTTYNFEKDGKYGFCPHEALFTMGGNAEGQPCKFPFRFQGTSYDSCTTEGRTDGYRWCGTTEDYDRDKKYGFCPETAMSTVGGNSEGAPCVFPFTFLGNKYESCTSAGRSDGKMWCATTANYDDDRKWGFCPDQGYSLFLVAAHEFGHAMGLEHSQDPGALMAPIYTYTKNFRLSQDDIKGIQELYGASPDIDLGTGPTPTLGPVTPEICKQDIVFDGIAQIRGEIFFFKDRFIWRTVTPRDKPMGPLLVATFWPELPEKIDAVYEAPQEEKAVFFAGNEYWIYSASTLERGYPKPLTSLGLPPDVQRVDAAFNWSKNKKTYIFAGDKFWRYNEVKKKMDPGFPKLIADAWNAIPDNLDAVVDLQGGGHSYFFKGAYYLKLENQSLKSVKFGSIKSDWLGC
Briefly: Inhibitory action for MMP-2 activity, fluorescence peptide assay. Conditions: activated human recombinant MMP-2, 30° C. for 45 minutes. How it is done:
Desired concentration of the test compound was reacted in 100 μl of a mixed reaction solution containing 50 mmol/L Tris-HCl (pH7.5), 150 mmol/L NaCl, 10 mmol/LCaCl2, 0.05% Brij35 and activated human recombinant MMP-2 (R&D) and fluorescence peptide matrix Mca-ProLeuGlyLeuDpaAlaArg-NH2 (R&D) at 30° C. for 45 minutes. To the mixed reaction solution, 10 μl of 0.2 mol/L EDTA was added to stop the enzyme reaction. Then, the fluorescence value was measured at 320 nm excitation wavelength and 405 nm measurement wavelength with a fluorescence plate reader.

[5] abbreviates: read-out: ADAMTS-5 inhibitory activity IC50 value.

T1 sequence (P08254 100-477): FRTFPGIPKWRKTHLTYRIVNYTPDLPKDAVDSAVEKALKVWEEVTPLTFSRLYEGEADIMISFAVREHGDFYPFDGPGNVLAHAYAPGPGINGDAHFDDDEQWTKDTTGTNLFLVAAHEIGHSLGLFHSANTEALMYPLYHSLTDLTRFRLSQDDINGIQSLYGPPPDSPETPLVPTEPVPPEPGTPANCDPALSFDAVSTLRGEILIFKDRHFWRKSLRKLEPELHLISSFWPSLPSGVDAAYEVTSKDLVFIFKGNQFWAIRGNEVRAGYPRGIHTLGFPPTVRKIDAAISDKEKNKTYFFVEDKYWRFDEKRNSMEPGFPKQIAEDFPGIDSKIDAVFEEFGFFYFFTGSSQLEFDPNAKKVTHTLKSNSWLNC

Usually IC50 stands for the concentration that gives 50% inhibition. As for `CCC(C(=O)O)N1Cc2sc(-c3ccc(NC(=O)c4ccc(OCc5ccccc5)cc4)cc3)cc2S1(=O)=O` (centres unmarked) [Example 147], the IC50 is no less than 30000 nM in test [1], no more than 2000 nM in test [2] (setting [5]), no less than 30000 nM in test [3] and no less than 30000 nM in test [4]. For the compound `CCC(C(=O)O)N1Cc2cc(-c3ccc(COc4ccc(Oc5ccccc5)cc4)cc3)sc2S1(=O)=O` (centres unmarked) [Example 104], the IC50 is no less than 30000 nM in test [1], no more than 2000 nM in test [2] (setting [5]), no less than 30000 nM in test [3] and no less than 30000 nM in test [4].

Take `CCC(C(=O)NO)N1Cc2sc(-c3ccccc3)cc2S1(=O)=O` (centres unmarked) [Example 12]: the IC50 in test [2] (read-out: ADAMTS-5 IC50) is 2000 nM.

For `CCC(C(=O)O)N1Cc2sc(/C=C/c3ccc(-c4ccccc4)cc3)cc2S1(=O)=O` (single isomer, unassigned) [Example 41], in test [2] (setting [5]), the IC50 is no more than 2000 nM. On to `CC(C)C(C(=O)NO)N1Cc2sc(-c3ccccc3)cc2S1(=O)=O` (centres unmarked) [Example 5], for which the half-maximal inhibitory concentration (IC50) in test [2] (read-out: ADAMTS-5 IC50) worked out at 2100 nM. Turning to `CCC(C(=O)O)N1Cc2sc(-c3ccc(/C=C/c4ccsc4)cc3)cc2S1(=O)=O` (centres unmarked) [Example 97], the IC50 in test [2] (setting [5]) is no more than 2000 nM.

Regarding `CCC(C(=O)O)N1Cc2sc(-c3ccc(-c4cncnc4)cc3)cc2S1(=O)=O` (centres unmarked) [Example 56], in test [2] (setting [5]), the IC50 was no more than 2000 nM. With `CC(C(=O)NO)N1Cc2sc(-c3ccccc3)cc2S1(=O)=O` (centres unmarked) [Example 11], the IC50 in test [2] (read-out: ADAMTS-5 IC50) came to 4000 nM. As to `CCC(C(=O)O)N1Cc2sc(C#Cc3ccc(N(C)C)cc3)cc2S1(=O)=O` (centres unmarked) [Example 66], the IC50 in test [2] (setting [5]) was no more than 2000 nM. Same read-out and setting: for `CCC(C(=O)O)N1Cc2sc(-c3ccc(/C=C/c4ccccc4)cc3)cc2S1(=O)=O` (centres unmarked) [Example 30] the value was no more than 2000 nM. Consider `CCC(C(=O)O)N1Cc2sc(-c3ccc(OCc4ccccc4)c(F)c3)cc2S1(=O)=O` (centres unmarked) [Example 113], for which the IC50 in test [1], in test [3] and in test [4] was no less than 30000 nM throughout.

For the compound `CCC(C(=O)O)N1Cc2sc(-c3ccc(/C=C/c4ccc(Cl)cc4)cc3)cc2S1(=O)=O` (centres unmarked) [Example 94], in test [2] (setting [5]), the IC50 was no more than 2000 nM. As to `O=C(NO)C(C1CCCCC1)N1Cc2sc(-c3ccccc3)cc2S1(=O)=O` (centres unmarked) [Example 13], the IC50 in test [2] (read-out: ADAMTS-5 IC50) is 2000 nM.

On to `CCC(C(=O)NO)N1Cc2sc(-c3ccccc3)cc2S1(=O)=O` (centres unmarked) [Example 18], for which the IC50 in test [2] (setting [5]) is no more than 2000 nM.

Turning to `CCC(C(=O)O)N1Cc2sc(-c3ccc(/C=C/c4ccc(OC)cc4)cc3)cc2S1(=O)=O` (centres unmarked) [Example 60], in test [2] (setting [5]), the IC50 was no more than 2000 nM.

As for `CCC(C(=O)O)N1Cc2sc(/C=C/c3ccc(-c4ccccc4)cc3)cc2S1(=O)=O` (centres unmarked) [Example 22], the IC50 in test [2] (setting [5]) is no more than 2000 nM.

Regarding `O=C(NO)C(c1ccccc1)N1Cc2sc(-c3ccccc3)cc2S1(=O)=O` (centres unmarked) [Example 14], in test [2] (read-out: ADAMTS-5 IC50), the IC50 was 7000 nM. Regarding `CCC(C(=O)O)N1Cc2sc(-c3ccc(-c4ccc5c(ccn5C)c4)cc3)cc2S1(=O)=O` (centres unmarked) [Example 53], the IC50 in test [2] (setting [5]) is no more than 2000 nM. With `CCC(C(=O)O)N1Cc2sc(-c3ccc(-c4ccc5c(cnn5C)c4)cc3)cc2S1(=O)=O` (centres unmarked) [Example 102], the IC50 in test [1] was no less than 30000 nM; in test [2] (setting [5]), no more than 2000 nM; in test [3] it was no less than 30000 nM. For the compound `CCC(C(=O)NO)N1Cc2sc(/C=C/c3ccc(-c4ccccc4)cc3)cc2S1(=O)=O` (centres unmarked) [Example 26], the IC50 in test [2] (setting [5]) was no more than 2000 nM. Same read-out and setting: for `CCC(C(=O)O)N1Cc2sc(-c3ccc(C#Cc4ccccc4)cc3)cc2S1(=O)=O` (centres unmarked) [Example 61] the value was no more than 2000 nM; for `CCC(C(=O)O)N1Cc2sc(-c3ccc(-c4cc5ccccc5[nH]4)cc3)cc2S1(=O)=O` (centres unmarked) [Example 54], no more than 2000 nM. The same measure, in the same setting: the same measure for `CCC(C(=O)O)N1Cc2sc(C#Cc3ccc(-c4ccccc4)cc3)cc2S1(=O)=O` (centres unmarked) [Example 69]: no more than 2000 nM. Consider `CCC(C(=O)O)N1Cc2sc(-c3ccc(/C=C/c4ccc(-c5ccccc5)cc4)cc3)cc2S1(=O)=O` (centres unmarked) [Example 96], for which the IC50 was no less than 30000 nM in test [1], no more than 2000 nM in test [2] (setting [5]), no less than 30000 nM in test [3] and no less than 30000 nM in test [4].

With `CCC(C(=O)O)N1Cc2sc(-c3ccc(/C=C/c4ccc(C)cc4)cc3)cc2S1(=O)=O` (centres unmarked) [Example 95], in test [2] (setting [5]), the IC50 was no more than 2000 nM.
